What was measured:
[1] = biological target: T1, Recombinant full-length human EP (Enteropeptidase) (Homo sapiens, UniProt P98073); assay: In vitro inhibition potencies against Enteropeptidase (EP), fluorescent peptide GDDDDK-naphthylamine substrate; type: biochemical; details: 300 μM substrate, 1.25 nM EP; for kinact/KI: 12-point dose-dependence, time-dependent inhibition, duplicate dilutions, read-out: kinact/KI^App; for inhibition at 0.1 µM: compound 0.1 μM; for inhibition at 1 µM: compound 1 μM; for inhibition at 10 µM: compound 10 μM
T1 construct: Recombinant full-length human EP (PeproTech, Cat #450-48C); purchased PeproTech 450-48C
T1 sequence (P98073 whole entry): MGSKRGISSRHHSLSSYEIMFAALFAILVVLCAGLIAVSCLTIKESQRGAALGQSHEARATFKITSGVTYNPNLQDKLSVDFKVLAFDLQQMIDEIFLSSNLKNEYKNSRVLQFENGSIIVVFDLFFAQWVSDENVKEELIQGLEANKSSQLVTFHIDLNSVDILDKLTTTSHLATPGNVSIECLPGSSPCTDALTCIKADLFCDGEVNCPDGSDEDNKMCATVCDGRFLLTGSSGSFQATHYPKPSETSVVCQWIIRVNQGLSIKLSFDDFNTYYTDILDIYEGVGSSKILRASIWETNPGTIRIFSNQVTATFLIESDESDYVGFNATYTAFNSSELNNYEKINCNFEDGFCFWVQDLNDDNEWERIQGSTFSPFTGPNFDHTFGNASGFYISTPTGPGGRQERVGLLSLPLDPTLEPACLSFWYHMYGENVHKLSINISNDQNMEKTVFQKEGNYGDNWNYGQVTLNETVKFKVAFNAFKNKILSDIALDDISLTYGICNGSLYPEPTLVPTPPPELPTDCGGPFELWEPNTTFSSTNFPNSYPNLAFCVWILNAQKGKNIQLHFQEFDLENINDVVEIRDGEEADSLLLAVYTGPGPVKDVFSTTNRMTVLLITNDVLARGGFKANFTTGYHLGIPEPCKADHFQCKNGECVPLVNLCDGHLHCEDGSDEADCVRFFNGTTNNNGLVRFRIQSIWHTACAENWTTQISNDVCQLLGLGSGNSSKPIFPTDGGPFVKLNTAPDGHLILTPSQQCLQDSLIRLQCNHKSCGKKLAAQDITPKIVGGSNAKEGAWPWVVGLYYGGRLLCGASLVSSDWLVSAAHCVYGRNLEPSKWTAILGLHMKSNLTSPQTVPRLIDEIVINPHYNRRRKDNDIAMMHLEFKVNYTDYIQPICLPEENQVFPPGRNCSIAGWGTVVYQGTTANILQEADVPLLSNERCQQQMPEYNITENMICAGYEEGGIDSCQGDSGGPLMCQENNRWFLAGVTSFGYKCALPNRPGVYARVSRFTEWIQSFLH
Method: In vitro inhibition potencies against Enteropeptidase (EP) Recombinant full-length human EP (PeproTech, Cat #450-48C) was used in this biochemical assay, with a quenched fluorescent labeled peptide GDDDDK-naphthylamine (NA) (Sigma, Cat #G5261) as the substrate in a buffer of 50 mM Tris-HCl pH 7.4, 200 mM NaCl and 0.01% Triton X-100. The enzyme activity was measured by following the formation of the cleavage product […](NA) by monitoring the fluorescence intensity (FI) at excitation/emission wavelengths of 340/410 nm. The steady-state kinetic characterization studies yielded an average of KM to be 412±22 μM and the apparent turnover number kcat^app of 11.8±0.4 s^−1 (N=2).
Compound inhibition studies were carried out under the conditions of 300 μM substrate and 1.25 nM EP. Reaction progress curves were collected by reading the FI at 340/410 nm continuously for 1 hour at an interval of 1 minute.
To screen compounds of formula (I), inhibition was studied at 4 different compound concentrations of 10 μM, 1 μM, 0.1 μM and 0.01 μM. Initial velocity of the reaction was determined, and percent of inhibition was calculated by comparing to the reaction in the absence of compound.
Accurate measurements of the inhibition potencies of selected compounds were studied in a 12-point dose-dependence fashion. […] Compound potency was measured by determining the inactivation rate constant (kobs) following the reaction change from the initial velocity vi to the steady-state velocity vs at various compound concentrations. The inactivation rate constants (kobs), were derived by fitting the reaction progress curves to eq. 1.
where YT is the detection signal of the reaction at time t, vi and vs are the initial and the steady-state velocities of the reaction, t is the reaction time. Y0 is the background signal (when t=0).
Compound binding mechanism was shown by plotting kobs˜[compound]. Hyperbolic fitting to eq. 2
conforms to a two-step binding mechanism as shown in Scheme BIO-1.
The plateau of the curve is the forward step rate constant of the isomerization step k3, KI^app is the inhibitor concentration that leads to half-maximal rate of inhibition of enzyme under the assay conditions. Compound inhibition potency was reported by the value of k3/KI^app.
A linear dependence of eq.3
indicates a one-step binding mechanism as shown in Scheme BIO-2
Slope of the linear fit gives the second-order rate constant of the compound binding k1, which is used to represent the compound inhibition potency.
(§1) Representative compounds of the present invention were tested according to the procedures as described in Biological Example 1 and Biological Example 2 above, with results as listed in Table 2 and Table 3, below. Results are reported as the %-inhibition (% Inh) or Kinact/KI value. Variability for the functional assay was typically within 20%. For the column headed Kinact/KI the listed measurement is the result of duplicate dilutions.

Bovine trypsin = biological target: T2, Bovine trypsin (Bos taurus, UniProt P00760); assay: Biochemical Assay of Trypsin (T), H-D-CHA-AR-AMC substrate; details: 15 μM substrate, 0.025 nM Trypsin; for kinact/KI: 12-point dose-dependence, time-dependent inhibition, duplicate dilutions, read-out: Kinact/KI^App; for inhibition at 0.1 µM: compound 0.1 μM; for inhibition at 1 µM: compound 1 μM; for inhibition at 10 µM: compound 10 μM
T2 construct: purchased Sigma-Aldrich T1426
T2 sequence (P00760 24-246): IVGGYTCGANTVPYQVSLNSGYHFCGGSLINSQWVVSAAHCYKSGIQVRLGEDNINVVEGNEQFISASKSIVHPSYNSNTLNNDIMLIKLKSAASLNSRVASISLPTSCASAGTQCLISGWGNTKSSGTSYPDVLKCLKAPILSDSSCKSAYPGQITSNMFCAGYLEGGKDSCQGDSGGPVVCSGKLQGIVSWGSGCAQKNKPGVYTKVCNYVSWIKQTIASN
Method: Bovine trypsin was purchased from Sigma-Aldrich (Cat No. T1426), and 7-amino-4-methylcoumarin (AMC) conjugated peptide H-D-cyclohexylalanine (D-CHA)-AR-AMC was used as the substrate in the assay. The protease activity of trypsin was followed by measuring AMC production by the emission fluorescence intensity of AMC at 460 nm with the excitation at 375 nm, in the same assay buffer as used in the EP assay. The enzyme kinetic characterization studies yielded an average of KM to be 3.9±0.5 μM and the apparent turnover number kcat^app of 33.8±0.4 s^−1 (N=2).
Studies of compound inhibition against T were carried out under the conditions of 15 μM substrate and 0.025 nM Trypsin. Reaction progress curves were collected by reading the FI at 375/460 nm continuously for 1 hour at an interval of 1 minute. Similar to the procedure for Enteropeptidase described above, compounds of formula (I) were screened against Trypsin at 4 different concentrations to obtain the percent of inhibition at 10 μM, 1 μM, 0.1 μM and 0.01 μM, and accurate potencies of selected compounds against Trypsin were derived from detailed 12-point dose-dependence studies for time-dependent inhibitors.
as §1

kinact/KI [1]	inhibition at 0.1 µM [1]	inhibition at 1 µM [1]	inhibition at 10 µM [1]	kinact/KI (Bovine trypsin)	inhibition at 0.1 µM (Bovine trypsin)	inhibition at 1 µM (Bovine trypsin)	inhibition at 10 µM (Bovine trypsin)	SMILES
130000 M⁻¹ s⁻¹	97.8%	100%	100%	159000 M⁻¹ s⁻¹	97.2%	100%	100%	N=C(N)Nc1ccc(C(=O)Oc2ccc(CC(=O)O)n3ncnc23)cc1 [Compound 1, 2-{8-[(4-carbamimidamidophenyl)carbonyloxy]-[1,2,4]triazolo[1,5-a]pyridin-5-yl}acetic acid]
	35%	101%	100%		99.8%	100%	100%	N=C(N)Nc1ccc(C(=O)Oc2ccc(CCC(=O)O)n3ncnc23)cc1 [Compound 3, 3-(8-(4-guanidinobenzoyloxy)-[1,2,4]triazolo[1,5-a]pyridin-5-yl)propanoic acid]
	48.1%	101%	100%		99.7%	100%	100%	N=C(N)Nc1ccc(C(=O)Oc2ccc(CC(=O)NCC(=O)O)n3ncnc23)cc1 [Compound 4, 2-(2-(8-(4-guanidinobenzoyloxy)-[1,2,4]triazolo[1,5-a]pyridin-5-yl)acetamido)acetic acid]
	48.3%	101%	100%		98.3%	100%	100%	N=C(N)Nc1ccc(C(=O)Oc2ccc(CC(=O)NC(CC(=O)O)C(=O)O)n3ncnc23)cc1 (stereo not drawn) [Compound 5, 2-(2-(8-(4-guanidinobenzoyloxy)-[1,2,4]triazolo[1,5-a]pyridin-5-yl)acetamido)succinic acid]
	20.9%	72.9%	101%		89.6%	99.9%	100%	N=C(N)Nc1ccc(C(=O)Oc2ccc(CC(=O)N(CC(=O)O)CC(=O)O)n3ncnc23)cc1 [Compound 6, 2,2′-(2-(8-(4-guanidinobenzoyloxy)-[1,2,4]triazolo[1,5-a]pyridin-5-yl)acetamido)diacetic acid]
	37.8%	100%	100%		94.1%	100%	100%	N=C(N)Nc1ccc(C(=O)Oc2ccc(CC(=O)NC(CCC(=O)O)(CCC(=O)O)CCC(=O)O)n3ncnc23)cc1 [Compound 7, 4-(2-carboxyethyl)-4-(2-(8-(4-guanidinobenzoyloxy)-[1,2,4]triazolo[1,5-a]pyridin-5-yl)acetamido)heptanedioic acid]
181000 M⁻¹ s⁻¹	101%	100%	100%	163000 M⁻¹ s⁻¹	98.8%	100%	99.9%	CS(=O)(=O)NC(=O)Cc1ccc(OC(=O)c2ccc(NC(=N)N)cc2)c2ncnn12 [Compound 8, 5-(2-(methylsulfonamido)-2-oxoethyl)-[1,2,4]triazolo[1,5-a]pyridin-8-yl4-guanidinobenzoate]
	89.7%	101%	100%		99.3%	100%	100%	N=C(N)Nc1ccc(C(=O)Oc2ccc(Cc3nn[nH]n3)n3ncnc23)cc1 [Compound 11, 5-((2H-tetrazol-5-yl)methyl)-[1,2,4]triazolo[1,5-a]pyridin-8-yl 4-guanidinobenzoate]

The next lines start with the compound.

SMILES	kinact/KI [1]	inhibition at 0.1 µM [1]	inhibition at 1 µM [1]	inhibition at 10 µM [1]	kinact/KI (Bovine trypsin)	inhibition at 0.1 µM (Bovine trypsin)	inhibition at 1 µM (Bovine trypsin)	inhibition at 10 µM (Bovine trypsin)
N=C(N)Nc1ccc(C(=O)Oc2ccc(CCC(=O)O)n3ccnc23)cc1 [Compound 2, 3-(8-(4-guanidinobenzoyloxy)imidazo[1,2-a]pyridin-5-yl)propanoic acid]	24400 M⁻¹ s⁻¹	27.6%	95.1%	100%		61%	100%	100%
N=C(N)Nc1ccc(C(=O)Oc2ccc(CC(=O)O)n3ccnc23)cc1 [Compound 9, 2-(8-(4-guanidinobenzoyloxy)imidazo[1,2-a]pyridin-5-yl)acetic acid]	210000 M⁻¹ s⁻¹	101%	100%	100%	111000 M⁻¹ s⁻¹	96.3%	101%	101%
N=C(N)Nc1ccc(C(=O)Oc2ccc(CC(=O)O)n3ncnc23)s1 [Compound 10, 2-(8-(5-guanidinothiophene-2-carbonyloxy)-[1,2,4]triazolo[1,5-a]pyridin-5-yl)acetic acid]		82%	100%	100%		93.8%	99.9%	99.8%
COc1cc(C(=O)Oc2ccc(CC(=O)O)n3ncnc23)ccc1NC(=N)N [Compound 12, 2-(8-(4-guanidino-3-methoxybenzoyloxy)-[1,2,4]triazolo[1,5-a]pyridin-5-yl)acetic acid]		20.8%	87.1%	101%		13.8%	72.4%	99.9%
N=C(N)Nc1ccc(C(=O)Oc2ccc(CC(=O)O)n3ncnc23)cc1I [Compound 13, 2-(8-(4-guanidino-3-iodobenzoyloxy)-[1,2,4]triazolo[1,5-a]pyridin-5-yl)acetic acid]		-1.5%	15.8%	65%		0.9%	7.6%	45%
N=C(N)Nc1ccc(C(=O)Oc2ccc(CC(=O)O)n3ncnc23)cc1F [Compound 14, 2-(8-(3-fluoro-4-guanidinobenzoyloxy)-[1,2,4]triazolo[1,5-a]pyridin-5-yl)acetic acid]	72800 M⁻¹ s⁻¹	96.8%	100%	100%	69700 M⁻¹ s⁻¹	87.6%	100%	100%
Cc1cc(C(=O)Oc2ccc(CC(=O)O)n3ncnc23)ccc1NC(=N)N [Compound 15, 2-(8-(4-guanidino-3-methylbenzoyloxy)-[1,2,4]triazolo[1,5-a]pyridin-5-yl)acetic acid]		1.3%	6.3%	36.7%		-0.1%	8.4%	35.5%
